Data from patent US11401278B2, “Macrocyclic indole derivatives” (The Broad Institute, Inc., priority 2017, dated 2022).
Values joined by “and” are separate entries in the source; they are usually repeats but may differ in a detail not shown here. Equal entries are not always repeated. Structures can show the parent of a compound that is named as a salt. Where two headings read alike, the source gives them in different places.

Assays:
BCL-XL = BCL-XL (Homo sapiens (Human), UniProt Q07817); assay: Protein-protein interaction assay BCL-XL/Bad BH3 peptide (BCL-XL assay, TR-FRET); type: binding; conditions: His-BCL-XL / Bad BH3 peptide, median
Sequence of BCL-XL (Q07817 other isoform, or with tags, fused parts or gaps): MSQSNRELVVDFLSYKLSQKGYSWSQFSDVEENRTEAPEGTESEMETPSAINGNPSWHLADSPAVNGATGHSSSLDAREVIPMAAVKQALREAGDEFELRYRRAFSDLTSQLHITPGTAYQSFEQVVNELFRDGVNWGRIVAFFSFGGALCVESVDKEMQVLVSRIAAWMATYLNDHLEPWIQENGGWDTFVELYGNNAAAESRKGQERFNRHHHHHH
Summary of the method: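 His-tagged human BCL-XL (aa 1-212, 1 nM final) was preincubated 10 min at 22 °C with compound (11 concentrations, 0.1 nM–20 μM), then biotinylated Bad BH3 peptide (1 nM) and TR-FRET reagents were added. Incubation: 1 h at 22 °C, then overnight at 4 °C, pH 7 Tris buffer. IC50 from 4-parameter fit of 665/620 ratio.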

HMC-1-8 = assay: Antiproliferation assay (Assay 7), HMC-1-8; type: cell-based; conditions: CellTiter-Glo, several values per example, read-out: Antiproli HMC-1-8 [M] IC50
Summary of the method: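 Proliferation over 72 h at 37° C was assessed by luminescent cell viability reagent, referenced to a day 0 plate.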

SMILES | IC50 (BCL-XL) [µM] | IC50 (HMC-1-8; 72 h) [M] | IC50 (HMC-1-8; 72 hours)
Cc1c2c(nn1C)C(CCN1CCOCC1)N(C)S(=O)(=O)CCCn1c(C(=O)O)c(CCCOc3cccc4ccccc34)c3cccc-2c31 (racemic) [Example 44, (rac)-2,3,14-trimethyl-15-[2-(rac)-(morpholin-4-yl)ethyl]-7-[3-(1-naphthyloxy)propyl]-11,12,14,15-tetrahydro-2H,10H-pyrazolo[3′,4′:4,5][1,2,8]thiadiazacycloundecino[6,7,8-hi]indole-8-carboxylic acid 13,13-dioxide (Mixture of Stereoisomers)] | > 20 | 1.2e-05 | 
Cc1c2c(nn1C)C(N1CCOCC1)CCN(C)S(=O)(=O)CCCn1c(C(=O)O)c(CCCOc3cccc4cc(F)ccc34)c3ccc(Cl)c-2c31 (racemic) [Example 47, (rac)-15-chloro-1-(3-((6-fluoronaphthalen-1-yl)oxy)propyl)-8,13,14-trimethyl-11-(rac)-morpholino-5,6,9,10,11,13-hexahydro-4H,8H-pyrazolo[3′,4′:6,7][1]thia[2,10]diazacyclotridecino[8,9,10-hi]indole-2-carboxylic acid 7,7-dioxide (Mixture of Stereoisomers)] | > 20 | 8e-06 | 1.2e-05 M
Cc1c2c(nn1C)C(CCN1CCOCC1)N(C)S(=O)(=O)CCCn1c(C(=O)O)c(CCCOc3cccc4cc(F)ccc34)c3ccc(Cl)c-2c31 (racemic) [Example 48, (rac)-4-chloro-7-{3-[(6-fluoro-1-naphthyl)oxy]propyl}-2,3,14-trimethyl-15-(rac)-[2-(morpholin-4-yl)ethyl]-11,12,14,15-tetrahydro-2H,10H-pyrazolo[3′,4′:4,5][1,2,8]thiadiazacycloundecino[6,7,8-hi]indole-8-carboxylic acid 13,13-dioxide (Mixture of Stereoisomers)] | > 20 |  | 9.8e-07 M and 9.3e-07 M
COc1ccc(CN2Cc3nn(C)c(C)c3-c3c(Cl)ccc4c(CCCOc5cccc6cc(F)ccc56)c(C(=O)O)n(c34)CCCS2(=O)=O)c(OC)c1 (racemic) [Example 49, (rac)-4-chloro-14-(2,4-dimethoxybenzyl)-7-{3-[(6-fluoro-1-naphthyl)oxy]propyl}-2,3-dimethyl-11,12,14,15-tetrahydro-2H,10H-pyrazolo[3′,4′:4,5][1,2,8]thiadiazacycloundecino[6,7,8-hi]indole-8-carboxylic acid 13,13-dioxide] | > 20 | 7.8e-06 | 5.8e-06 M
Cc1c2c(nn1C)CNS(=O)(=O)CCCn1c(C(=O)O)c(CCCOc3cccc4cc(F)ccc34)c3ccc(Cl)c-2c31 (racemic) [Example 50, (rac)-4-chloro-7-{3-[(6-fluoro-1-naphthyl)oxy]propyl}-2,3-dimethyl-11,12,14,15-tetrahydro-2H,10H-pyrazolo[3′,4′:4,5][1,2,8]thiadiazacycloundecino[6,7,8-hi]indole-8-carboxylic acid 13,13-dioxide] | > 20 | 3e-05 | 
CCc1c2c(nn1C)CN(C)S(=O)(=O)CCCn1c(C(=O)O)c(CCCOc3cccc4cc(F)ccc34)c3ccc(Cl)c-2c31 (single isomer, unassigned; enantiomer 1) [Example 36, (+)-4-chloro-3-ethyl-7-{3-[(6-fluoronaphthalen-1-yl)oxy]propyl}-2,14-dimethyl-13,13-dioxo-10,11,12,13,14,15-hexahydro-2H-13lambda^6-pyrazolo[3′,4′:4,5][1,2,8]thiadiazacycloundecino-[6,7,8-hi]indole-8-carboxylic acid (Enantiomer 1)] | > 20 |  | 1.7e-06 M and 1.9e-06 M
Cc1c2c(nn1C)CN(C)S(=O)(=O)CCCn1c(C(=O)O)c(CCCOc3cccc4cc(F)ccc34)c3ccc(F)c-2c31 (single isomer, unassigned; enantiomer 1) [Example 38, (−)-4-fluoro-7-{3-[(6-fluoronaphthalen-1-yl)oxy]propyl}-2,3,14-trimethyl-13,13-dioxo-10,11,12,13,14,15-hexahydro-2H-13lambda^6-pyrazolo[3′,4′:4,5][1,2,8]thiadiazacycloundecino-[6,7,8-hi]indole-8-carboxylic acid (Enantiomer 1)] | > 20 |  | 2.7e-05 M
Cc1c2c(nn1C)CN(C1CC1)S(=O)(=O)CCCn1c(C(=O)O)c(CCCOc3cccc4cc(F)ccc34)c3ccc(Cl)c-2c31 (single isomer, unassigned; enantiomer 1) [Example 42, (−)-4-chloro-14-cyclopropyl-7-{3-[(6-fluoro-1-naphthyl)oxy]propyl}-2,3-dimethyl-11,12,14,15-tetrahydro-2H,10H-pyrazolo[3′,4′:4,5][1,2,8]thiadiazacycloundecino[6,7,8-hi]indole-8-carboxylic acid 13,13-dioxide N-diethylamine salt (Enantiomer 1)] | 18 |  | 5.9e-06 M and 3.8e-06 M
Cc1c2c(nn1C)C(CCN1CCOCC1)N(C)S(=O)(=O)CCCn1c(C(=O)O)c(CCCOc3cccc4ccccc34)c3cccc-2c31 (single isomer, unassigned; enantiomer 1) [Example 45, 2,3,14-trimethyl-15-[2-(morpholin-4-yl)ethyl]-7-{3-[(naphthalen-1-yl)oxy]propyl}-13,13-dioxo-10,11,12,13,14,15-hexahydro-2H-13lambda^6-pyrazolo[3′,4′:4,5][1,2,8]thiadiazacycloundecino[6,7,8-hi]indole-8-carboxylic acid N-ethylethanamine Salt (Enantiomer 1)] | 18 |  | > 3.3e-05 M
CCc1c2c(nn1C)CN(C)S(=O)(=O)CCCn1c(C(=O)O)c(CCCOc3cccc4cc(F)ccc34)c3ccc(Cl)c-2c31 (single isomer, unassigned; enantiomer 2) [Example 37, (−)-4-chloro-3-ethyl-7-{3-[(6-fluoronaphthalen-1-yl)oxy]propyl}-2,14-dimethyl-13,13-dioxo-10,11,12,13,14,15-hexahydro-2H-13lambda^6-pyrazolo[3′,4′:4,5][1,2,8]thiadiazacycloundecino-[6,7,8-hi]indole-8-carboxylic acid (Enantiomer 2)] | 18 |  | 1.9e-05 M
Cc1c2c(nn1C)CN(C)S(=O)(=O)CCCn1c(C(=O)O)c(CCCOc3cccc4cc(F)ccc34)c3ccc(F)c-2c31 (single isomer, unassigned; enantiomer 2) [Example 39, (+)-4-fluoro-7-{3-[(6-fluoronaphthalen-1-yl)oxy]propyl}-2,3,14-trimethyl-13,13-dioxo-10,11,12,13,14,15-hexahydro-2H-13lambda^6-pyrazolo[3′,4′:4,5][1,2,8]thiadiazacycloundecino-[6,7,8-hi]indole-8-carboxylic acid (Enantiomer 2)] | > 20 |  | 3.3e-06 M and 5.1e-06 M

More lines, main results first:

IC50 (BCL-XL) [µM] | SMILES | IC50 (HMC-1-8; 72 h) [M] | IC50 (HMC-1-8; 72 hours)
16 | CCc1c2c(nn1C)CN(C1CC1)S(=O)(=O)CCCn1c(C(=O)O)c(CCCOc3cccc4cc(F)ccc34)c3ccc(Cl)c-2c31 (racemic) [Example 53, (rac)-4-chloro-14-cyclopropyl-3-ethyl-7-{3-[(6-fluoro-1-naphthyl)oxy]propyl}-2-methyl-11,12,14,15-tetrahydro-2H,10H-pyrazolo[3′,4′:4,5][1,2,8]thiadiazacycloundecino[6,7,8-hi]indole-8-carboxylic acid 13,13-dioxide] |  | 5e-06 M and 6.4e-06 M and 7.7e-06 M
16 | CCc1c2c(nn1C)C(CCC1CCOCC1)N(C)S(=O)(=O)CCCn1c(C(=O)O)c(CCCOc3cccc4cc(F)ccc34)c3ccc(Cl)c-2c31 (racemic) [Example 59, (rac)-4-chloro-3-ethyl-7-{3-[(6-fluoro-1-naphthyl)oxy]propyl}-2,14-dimethyl-15-[2-(tetrahydro-2H-pyran-4-yl)ethyl]-11,12,14,15-tetrahydro-2H,10H-pyrazolo[3′,4′:4,5][1,2,8]thiadiazacycloundecino[6,7,8-hi]indole-8-carboxylic acid 13,13-dioxide (Racemate 2)] |  | 6e-07 M
> 20 | CCc1c2c(nn1C)C(CCC1CCOCC1)N(C)S(=O)(=O)CCCn1c(C(=O)O)c(CCCOc3cccc4cc(F)ccc34)c3ccc(Cl)c-2c31 (racemic) [Example 60, (rac)-4-chloro-3-ethyl-7-{3-[(6-fluoro-1-naphthyl)oxy]propyl}-2,14-dimethyl-15-[2-(tetrahydro-2H-pyran-4-yl)ethyl]-11,12,14,15-tetrahydro-2H,10H-pyrazolo[3′,4′:4,5][1,2,8]thiadiazacycloundecino[6,7,8-hi]indole-8-carboxylic acid 13,13-dioxide (Racemate 1)] |  | 1.9e-07 M
> 20 | Cc1c2c(nn1C)C(CCN1CCOCC1)N(C)S(=O)(=O)CCCn1c(C(=O)O)c(CCCOc3cccc4cc(F)ccc34)c3ccc(Cl)c-2c31 (racemic) [Example 65, (rac)-4-chloro-7-{3-[(6-fluoronaphthalen-1-yl)oxy]propyl}-2,3,14-trimethyl-15-(rac)-[2-(morpholin-4-yl)ethyl]-13,13-dioxo-10,11,12,13,14,15-hexahydro-2H-13lambda^6-pyrazolo[3′,4′:4,5][1,2,8]thiadiazacycloundecino[6,7,8-hi]indole-8-carboxylic acid (Mixture of Stereoisomers)] | 1.5e-06 | 
> 20 | Cc1c2c(nn1C)C(CCN1CCOCC1)N(C)S(=O)(=O)CCCn1c(C(=O)O)c(CCCOc3cccc4cc(F)ccc34)c3ccc(Cl)c-2c31 (single isomer, unassigned; enantiomer 1) [Example 66, 4-chloro-7-{3-[(6-fluoronaphthalen-1-yl)oxy]propyl}-2,3,14-trimethyl-15-[2-(morpholin-4-yl)ethyl]-13,13-dioxo-10,11,12,13,14,15-hexahydro-2H-13lambda^6-pyrazolo[3′,4′:4,5][1,2,8]thiadiazacycloundecino[6,7,8-hi]indole-8-carboxylic acid (Enantiomer 1)] |  | > 3.3e-05 M
